A value given as a limit tells only on which side of the number the result lay.

As a reminder, the EC50 is the concentration needed to bring the measured effect to its halfway point.

The test system of data set [1] is PD1-ss+10aa/Gaussia Luciferase. The experiment in a line: Dox-Induced PD1-ss-Gluc Assay. Type of data set: cell-based. The settings on record: 24 hr Dox induction; 293FRT/TO cells; mean; read-out: 24 hr Dox Inducible PD1ssGluc 293FRT/TO: Mean IC50. Put shortly:
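Stable Flp-In 293 T-REx cells carried a doxycycline-inducible construct of Gaussia luciferase fused to the PD1 signal sequence plus 10 amino acids. Cells were plated the day before, then treated with compound dilutions in DMSO/media containing doxycycline at 37 °C, 5% CO2.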

Data set [2] relates to TNFα-FL/Gaussia Luciferase. Description: Dox Induced TNFα-FL-Gluc Assay. It counts as cell-based. The settings on record: for IC50: 24 hr Dox induction, 293FRT/TO cells, mean, read-out: 24 hr Dox Inducible TNFaFLGluc 293FRT/TO: Mean IC50; for 24 hr Dox Inducible TNFaFLGluc 293FRT/TO: TNF/PD1: ratio of TNFaFLGluc IC50 to PD1ssGluc IC50, '<=>' given where both are I.A. The essentials:
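Compound was added with doxycycline to cells plated a day earlier, incubating at 37° C under 5% CO2. The reporter line is 293 T-REx expressing a TNFα (1-233)–Gaussia luciferase fusion under tetracycline-regulated control.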

In data set [3] the test system is HER3-ss+4aa/Gaussia Luciferase. Description: Dox-Induced Her3-ss-Gluc Assay. It counts as cell-based. The settings on record: 24 hr Dox induction; 293FRT/TO cells; mean; read-out: 24 hr Dox Inducible Her3(ss + 4)Gluc 293FRT/TO: Mean IC50. The essentials: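 Compounds were diluted in DMSO/media containing doxycycline. They were added to Flp-In 293 T-REx cells plated the previous day, then incubated at 37 °C under 5% CO2. These cells stably express, under T-REx control, Gaussia luciferase fused to the HER3 signal sequence plus 4 amino acids.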

In data set [4] the test system is IL-2-FL/Gaussia Luciferase. Description: Dox Induced IL2-FL-Gluc Assay. It counts as cell-based. The settings on record: for IC50: 24 hr Dox induction, 293FRT/TO cells, mean, read-out: 24 hr Dox Inducible IL2FLGluc 293FRT/TO: Mean IC50; for 24 hr Dox Inducible IL2FLGluc 293FRT/TO: IL2/PD1: ratio of IL2FLGluc IC50 to PD1ssGluc IC50, '<=>' given where both are I.A. The essentials:
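Compounds in DMSO/medium with doxycycline were applied to a 293 T-REx stable line expressing an IL-2 (aa 1-153)–Gaussia luciferase fusion under tetracycline-regulated control, cells seeded one day earlier; incubation at 37 °C, 5% CO2. Structures drawn without stereochemistry were tested as stereoisomer mixtures.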

In data set [5] the test system is multiple myeloma cell line NCI-H929. The experiment in a line: H929 Cell Viability Assay. It counts as cell-based, human. The conditions noted are these: Homo sapiens, NCI-H929, 48 h, NCI-H929 cells, Celltiter-Glo. Put shortly: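 Luminescent CellTiter-Glo read-out of viability after a 48 h exposure (37° C, 5% CO2) of NCI-H929 myeloma cells to compound dilutions in RPMI 1640 plus 10% FBS. Data for structures drawn without stereochemistry refer to stereoisomer mixtures.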
(Cellular ATP, detected with luciferase, serves as a proxy for viable cell number.)

Data set [6] has as its system multiple myeloma cell line U266B1. Description: U266 Cell Viability Assay. The conditions noted are these: Homo sapiens, U-266, 48 h, U266B1 cells, Celltiter-Glo. It counts as cell-based, human. Put shortly:
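CellTiter-Glo luminescence was read after a 48 h compound exposure (37 °C, 5% CO2) of human U266B1 myeloma cells grown in 10% FBS-supplemented RPMI 1640. Data for structures shown without defined stereochemistry refer to stereoisomer mixtures.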

The nature of data set [7]: Liver Microsome Stability Assay (rat). The conditions noted are these: rat liver microsomes, with NADPH, 1.0 uM compound. In general terms: Liver microsomes are vesicles of endoplasmic reticulum, rich in cytochrome P450 enzymes.
Description: (§1) Stability of a compound was assessed in the presence of liver microsomes from various sources—mouse, rat, monkey and human liver microsomes. 1.0 uM compound, 0.4% DMSO in 0.1 M Potassium Phosphate with 1.0 mg/mL liver microsomes, were incubated at 37° C. with or without 1 mM NADPH. The samples were quenched at 0, and 30 minutes.
Data set [8] can be described thus: Liver Microsome Stability Assay (mouse). The conditions noted are these: mouse liver microsomes, with NADPH, 1.0 uM compound.
Description: as §1
A short description of data set [9]: Liver Microsome Stability Assay (human). The conditions noted are these: human liver microsomes, with NADPH, 1.0 uM compound.
Description: as §1
The nature of data set [10]: Liver Microsome Stability Assay (monkey). The conditions noted are these: monkey liver microsomes, with NADPH, 1.0 uM compound.
Description: as §1

Turning to `Cc1ccnc(N2CCC[C@@H]2c2csc(NC(=O)c3cccn3Cc3ccncc3)n2)c1` [Compound E63, (R)-N-(4-(1-(4-methylpyridin-2-yl)pyrrolidin-2-yl)thiazol-2-yl)-1-(pyridin-4-ylmethyl)-1H-pyrrole-2-carboxamide], the IC50 in data set [1] came out at 64 nM; in [2], 704 nM; in data set [3], 97 nM; in data set [4], 95.2 nM. The “24 hr Dox Inducible TNFaFLGluc 293FRT/TO: TNF/PD1” value in data set [2] is reported as 11. Moreover, in data set [4], the “24 hr Dox Inducible IL2FLGluc 293FRT/TO: IL2/PD1” value came to 1.5. Further, the EC50 in data set [5] is 2970 nM; in data set [6], above 25000 nM. Besides, in data set [7], the “Liver Microsome Stability (Multiple Species): Rat - % Remaining after 30 min w/NADPH” value amounted to 0.23%. Also, the “Liver Microsome Stability (Multiple Species): Mouse - % Remaining after 30 min w/NADPH” value in data set [8] is recorded as 0.72%. Further, in [9], the “Liver Microsome Stability (Multiple Species): Human - % Remaining after 30 min w/NADPH” value was 0.02%. Further, in [10], the “Liver Microsome Stability (Multiple Species): Monkey - % Remaining after 30 min w/NADPH” value worked out at 0.32%.
For `Cc1cccnc1N1CCC[C@@H]1c1csc(NC(=O)c2cccn2Cc2ccncc2)n1` [Compound E64, (R)-N-(4-(1-(3-methylpyridin-2-yl)pyrrolidin-2-yl)thiazol-2-yl)-1-(pyridin-4-ylmethyl)-1H-pyrrole-2-carboxamide], the IC50 in data set [1] was 70.3 nM; in [2], 377 nM; in [3], 106 nM; in data set [4], 70.5 nM. For the same molecule, in data set [2], the “24 hr Dox Inducible TNFaFLGluc 293FRT/TO: TNF/PD1” value is recorded as 5.37. The “24 hr Dox Inducible IL2FLGluc 293FRT/TO: IL2/PD1” value in [4] is recorded as 1. Further, the EC50 in [5] is 3100 nM; in [6], above 25000 nM. The “Liver Microsome Stability (Multiple Species): Rat - % Remaining after 30 min w/NADPH” value in data set [7] is on record as 0.16%. In data set [8], the “Liver Microsome Stability (Multiple Species): Mouse - % Remaining after 30 min w/NADPH” value worked out at 0.21%. The “Liver Microsome Stability (Multiple Species): Human - % Remaining after 30 min w/NADPH” value in data set [9] is 6.7%. For the same molecule, the “Liver Microsome Stability (Multiple Species): Monkey - % Remaining after 30 min w/NADPH” value in data set [10] came out at 7.11%.
As for `CCc1ccc(N2CCC[C@@H]2c2csc(NC(=O)c3cccn3Cc3ccncc3)n2)nc1` [Compound E65, (R)-N-(4-(1-(5-ethylpyridin-2-yl)pyrrolidin-2-yl)thiazol-2-yl)-1-(pyridin-4-ylmethyl)-1H-pyrrole-2-carboxamide], the IC50 was determined as 5.5 nM in data set [1], 71 nM in [2], 14.4 nM in data set [3] and 16.4 nM in [4]. In data set [2], the “24 hr Dox Inducible TNFaFLGluc 293FRT/TO: TNF/PD1” value is listed as 12.9. In addition, the “24 hr Dox Inducible IL2FLGluc 293FRT/TO: IL2/PD1” value in data set [4] was determined as 3. The EC50 in data set [5] was 142 nM; in data set [6], above 25000 nM. For the same molecule, the “Liver Microsome Stability (Multiple Species): Rat - % Remaining after 30 min w/NADPH” value in [7] amounted to 2.87%. In addition, the “Liver Microsome Stability (Multiple Species): Mouse - % Remaining after 30 min w/NADPH” value in data set [8] was found to be 0.33%. The “Liver Microsome Stability (Multiple Species): Human - % Remaining after 30 min w/NADPH” value in [9] turned out to be 0.33%. Besides, in [10], the “Liver Microsome Stability (Multiple Species): Monkey - % Remaining after 30 min w/NADPH” value was found to be 0.13%.

The values above are taken from US20230286973A1, “PROTEIN SECRETION INHIBITORS” (KEZAR LIFE SCIENCES, priority 2020, published 2023).
